Data taken from the supplement of paper PMC10307832.

Tests used:
Assay in all cases: relative viability (nuclei count vs DMSO), 5 days (fraction); higher = more cells survive
Trametinib + Linsitinib = compound: CC(=O)Nc1cccc(-n2c(=O)n(C3CC3)c(=O)c3c(Nc4ccc(I)cc4F)n(C)c(=O)c(C)c32)c1 [Trametinib] + C[C@]1(O)C[C@@H](c2nc(-c3ccc4ccc(-c5ccccc5)nc4c3)c3c(N)nccn32)C1 [Linsitinib] (partner 1 µM)
How it was run: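 Nuclei were stained with Hoechst during a one-step fixation (final 0.05% Triton X-100, 1% formaldehyde, 1 ug/ml Hoechst) carried out 5 days after dosing, then counted on 4× images. The cells, lung cancer lines in 1536-well plates, had been dosed by pin tool the day after seeding with one drug alone or a fixed anchor-drug dose plus five library-drug doses (not always all listed) in √10 steps. Relative viability is the nuclei count in treated wells divided by that in vehicle wells, and each value is the median of duplicate plates.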

[1] = compound: CN1C=C(C2=CC=CC=C21)/C=C\3/C4=C(C=CC=N4)NC3=O
How it was run: (§1)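 After an overnight hold at 37 °C, lung cancer cell lines in 1536-well plates were pinned with five library-drug doses (not always all listed), each √10 from the next, on vehicle-anchored plates. The cells stayed 5 days without fresh medium, then a one-step fix, permeabilisation and Hoechst stain preceded 4× imaging and MetaXpress nuclear counts. A plate passed only with control CV under 25% and at least one doubling. Viability is the median, over plates, of treated-well nuclei relative to vehicle-well nuclei.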

Trametinib = compound: CC(=O)Nc1cccc(-n2c(=O)n(C3CC3)c(=O)c3c(Nc4ccc(I)cc4F)n(C)c(=O)c(C)c32)c1 [Trametinib]
How it was run: as §1

UMC-11
relative viability (Trametinib + Linsitinib; first compound 0.0025 µM): 1.01 | relative viability (Trametinib + Linsitinib; first compound 0.007906 µM): 1.04 | relative viability (Trametinib + Linsitinib; first compound 0.025 µM): 0.929 | relative viability (Trametinib + Linsitinib; first compound 0.07906 µM): 1.07 | relative viability (Trametinib + Linsitinib; first compound 0.25 µM): 0.974 | relative viability ([1]; 0.02 µM): 0.876 | relative viability ([1]; 0.06325 µM): 0.884 | relative viability ([1]; 0.2 µM): 0.771 | relative viability ([1]; 0.6325 µM): 0.968 | relative viability ([1]; 2 µM): 1.17 | relative viability (Trametinib; 0.0025 µM): 0.931 | relative viability (Trametinib; 0.007906 µM): 1.03 | relative viability (Trametinib; 0.02 µM, anchor plate): 0.722 | relative viability (Trametinib; 0.025 µM): 0.658 | relative viability (Trametinib; 0.07906 µM): 0.92 | relative viability (Trametinib; 0.25 µM): 0.985
